Source: patent US20260184687A1, “DIHYDROINDENE DERIVATIVES AS MALT1 INHIBITORS” (C4X Discovery Limited, priority 2022, published 2026)

What follows are molecules tested against T1, FL hMALT1 enzyme (Homo sapiens, UniProt Q9UDY8) (assay: biochemical).
T1 sequence (Q9UDY8 1-824): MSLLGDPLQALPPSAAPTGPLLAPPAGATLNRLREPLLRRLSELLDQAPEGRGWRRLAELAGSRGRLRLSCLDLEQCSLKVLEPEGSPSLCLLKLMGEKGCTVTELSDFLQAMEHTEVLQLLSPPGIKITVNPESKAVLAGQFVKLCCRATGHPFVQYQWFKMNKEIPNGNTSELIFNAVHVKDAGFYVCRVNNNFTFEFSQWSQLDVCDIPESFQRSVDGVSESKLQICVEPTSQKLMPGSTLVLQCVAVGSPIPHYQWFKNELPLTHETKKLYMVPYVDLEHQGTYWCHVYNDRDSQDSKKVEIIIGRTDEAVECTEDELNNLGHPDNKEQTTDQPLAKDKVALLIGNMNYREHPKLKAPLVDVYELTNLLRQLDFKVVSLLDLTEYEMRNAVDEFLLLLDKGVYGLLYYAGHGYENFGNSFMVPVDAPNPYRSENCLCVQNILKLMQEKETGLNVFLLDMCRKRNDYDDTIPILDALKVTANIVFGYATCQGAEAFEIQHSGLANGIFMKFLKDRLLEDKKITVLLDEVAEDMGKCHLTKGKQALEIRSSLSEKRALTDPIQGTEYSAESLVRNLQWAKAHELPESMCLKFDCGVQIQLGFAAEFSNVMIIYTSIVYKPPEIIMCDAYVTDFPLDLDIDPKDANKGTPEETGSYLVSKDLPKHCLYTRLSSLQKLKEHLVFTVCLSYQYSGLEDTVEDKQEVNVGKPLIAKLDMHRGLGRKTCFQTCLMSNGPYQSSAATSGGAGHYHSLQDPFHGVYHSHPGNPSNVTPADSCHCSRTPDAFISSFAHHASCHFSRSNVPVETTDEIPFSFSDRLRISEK
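Also: Cell-free protease assay: enzyme preincubated with compound 30 min at room temperature, then cleavage of fluorogenic Ac-LVSR-AMC substrate (100 µM) tracked by fluorescence (ex 360/em 460 nm).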
Experimental: MALT1 protease activity was assessed in vitro by measuring the cleavage of a fluorogenic tetrapeptide substrate.
For a higher sensitivity assay, commercially available FL hMALT1 enzyme (Abcam, 1-10 nM) was incubated with substrate (Ac-LVSR-AMC, 100 μM) in reaction buffer comprising 50 mM HEPES (pH7.0), 25 mM KCl, 0.1% (v/v) CHAPS, 1 mM TCEP and 0.7 M sodium citrate.
Test compounds dissolved in DMSO were dispensed into assay plates (384-well, black, shallow ProxiPlates). 7 μl enzyme solution was added and incubated at room temperature for 30 minutes to allow compound binding to occur. 2 μl substrate solution was then added and the fluorescence (excitation 360 nm, emission 460 nm) read every 15 minutes using a suitable plate reader. Final assay DMSO concentration was 1%. […] IC50 values were calculated using GraphPad Prism using a 4-parameter non-linear regression curve fit.

| IC50 | SMILES |
| --- | --- |
| 1.2 µM | CN(C(=O)C1CCS(=O)(=O)CC1)[C@@H](c1ccc(NC2Cc3cccc(Cl)c3C2)cn1)C(F)(F)F (single isomer, unassigned) [Example 264] |
| 1.6 µM | CN(C(=O)C1CCS(=O)(=O)CC1)[C@@H](c1ccc(NC2Cc3ccc(F)c(Cl)c3C2)cn1)C(F)(F)F (single isomer, unassigned) [Example 266] |
| 0.78 µM | CN(C(=O)C1CCS(=O)(=O)CC1)[C@@H](c1ccc(NC2Cc3ccc(Cl)c(F)c3C2)cn1)C(F)(F)F (single isomer, unassigned) [Example 276] |
| 0.35 µM | CN(C(=O)C1CCS(=O)(=O)CC1)[C@@H](c1ccc(NC2Cc3ccc(Cl)c(Cl)c3C2)cn1)C(F)(F)F (single isomer, unassigned) [Example 278] |
| 0.34 µM | CN(C(=O)C1CCS(=O)(=O)CC1)[C@@H](c1ccc(NC2Cc3cc(Cl)cc(Cl)c3C2)cn1)C(F)(F)F (single isomer, unassigned) [Example 282] |
| 0.91 µM | CN(C(=O)C1CCS(=O)(=O)CC1)[C@@H](c1ccc(NC2Cc3cc(Cl)cc(Cl)c3C2)cn1)C(F)(F)F (single isomer, unassigned) [Example 283] |
| 0.3 µM | CN(C(=O)C1CCS(=O)(=O)CC1)[C@@H](c1ccc(NC2Cc3ccc(Cl)c(C4CC4)c3C2)cn1)C(F)(F)F (single isomer, unassigned) [Example 305] |
| 0.3 µM | CN(C(=O)C1CCS(=O)(=O)CC1)[C@@H](c1ccc(NC2Cc3ccc(Cl)c(C(F)(F)F)c3C2)cn1)C(F)(F)F (single isomer, unassigned) [Example 311] |
| 1.1 µM | CN(C(=O)[C@@H]1CNC(=O)C1)[C@@H](c1ccc(N[C@H]2Cc3ccc(Cl)c(F)c3C2)cn1)C(F)(F)F (single isomer, unassigned) [Example 316] |
| 0.66 µM | CN(C(=O)[C@@H]1CNC(=O)C1)[C@@H](c1ccc(NC2Cc3ccc(Cl)c(Cl)c3C2)cn1)C(F)(F)F (single isomer, unassigned) [Example 318] |
| 0.75 µM | CN(C(=O)[C@H]1CCC(=O)NC1)[C@@H](c1ccc(NC2Cc3ccc(Cl)c(Cl)c3C2)cn1)C(F)(F)F (single isomer, unassigned) [Example 320] |
| 0.31 µM | CN(C(=O)C12CC(NS(C)(=O)=O)(C1)C2)[C@@H](c1ccc(NC2Cc3ccc(Cl)c(Cl)c3C2)cn1)C(F)(F)F (single isomer, unassigned) [Example 322] |
| 0.24 µM | CN(C(=O)C1CCN(S(C)(=O)=O)CC1)[C@@H](c1ccc(NC2Cc3ccc(Cl)c(Cl)c3C2)cn1)C(F)(F)F (single isomer, unassigned) [Example 326] |
| 0.57 µM | CN(C(=O)[C@@H]1CNC(=O)C1)[C@@H](c1ccc(NC2Cc3ccc(Cl)c(C4CC4)c3C2)cn1)C(F)(F)F (single isomer, unassigned) [Example 327] |
| 0.68 µM | CN(C(=O)[C@H]1CCC(=O)NC1)[C@@H](c1ccc(NC2Cc3ccc(Cl)c(C4CC4)c3C2)cn1)C(F)(F)F (single isomer, unassigned) [Example 329] |
| 0.3 µM | CNC(=O)N1CC(C(=O)N(C)[C@@H](c2ccc(NC3Cc4ccc(Cl)c(Cl)c4C3)cn2)C(F)(F)F)C1 (single isomer, unassigned) [Example 334] |
| 0.69 µM | CN(C(=O)[C@H]1CCC(=O)NC1)[C@@H](c1ccc(NC2Cc3ccc(Cl)c(F)c3C2)cn1)C(F)(F)F (single isomer, unassigned) [Example 336] |
| 0.56 µM | CN(C(=O)C1CC2(CCC(=O)N2)C1)[C@@H](c1ccc(NC2Cc3ccc(Cl)c(Cl)c3C2)cn1)C(F)(F)F (single isomer, unassigned) [Example 340] |
| 1.32 µM | CN(C(=O)C1CC2(CCC(=O)N2)C1)[C@@H](c1ccc(NC2Cc3ccc(Cl)c(Cl)c3C2)cn1)C(F)(F)F (single isomer, unassigned) [Example 342] |
| 0.31 µM | CN(C(=O)C1CCS(=O)(=O)CC1)[C@@H](c1ccc(NC2Cc3ccc(Cl)c(Cl)c3C2)nc1)C(F)(F)F (single isomer, unassigned) [Example 344] |
| 0.007 µM | CN(C(=O)C1CCS(=O)(=O)CC1)[C@@H](c1ccc(NC2Cc3ccc(Cl)c(Cl)c3C2)nc1)C(F)(F)F (single isomer, unassigned) [Example 345] |
| 1.1 µM | CN(C(=O)[C@H]1CNC(=O)C1)[C@@H](c1ccc(NC2Cc3ccc(Cl)c(Cl)c3C2)nc1)C(F)(F)F (single isomer, unassigned) [Example 346] |
| 1.04 µM | CN(C(=O)CC#N)[C@@H](c1ccc(NC2Cc3ccc(Cl)c(Cl)c3C2)cn1)C(F)(F)F (single isomer, unassigned) [Example 349] |
| 0.59 µM | CN(C(=O)C1CN(C(=O)C2CCOC2)C1)[C@@H](c1ccc(NC2Cc3ccc(Cl)c(Cl)c3C2)cn1)C(F)(F)F (single isomer, unassigned) [Example 351] |
| 1 µM | CN(C(=O)C1CN(C(=O)C2CCOC2)C1)[C@@H](c1ccc(NC2Cc3ccc(Cl)c(Cl)c3C2)cn1)C(F)(F)F (single isomer, unassigned) [Example 354] |
| 0.69 µM | CN(C(=O)C1CCS(=O)(=O)C1)[C@@H](c1ccc(NC2Cc3ccc(Cl)c(Cl)c3C2)cn1)C(F)(F)F (single isomer, unassigned) [Example 357] |

More lines, now with the values behind:

| SMILES | IC50 |
| --- | --- |
| CN(C(=O)C1CCS(=O)(=O)CC1)[C@@H](c1ccc(NC2Cc3ccc(F)cc3C2)cn1)C(F)(F)F (single isomer, unassigned) [Example 259] | 0.18 µM |
| CN(C(=O)C1CCS(=O)(=O)CC1)[C@@H](c1ccc(NC2Cc3cc(F)cc(F)c3C2)cn1)C(F)(F)F (single isomer, unassigned) [Example 268] | 3.4 µM |
| CN(C(=O)C1CCS(=O)(=O)CC1)[C@@H](c1ccc(NC2Cc3cc(F)cc(F)c3C2)cn1)C(F)(F)F (single isomer, unassigned) [Example 269] | 0.15 µM |
| CN(C(=O)C1CCS(=O)(=O)CC1)[C@@H](c1ccc(NC2Cc3cc(Cl)cc(F)c3C2)cn1)C(F)(F)F (single isomer, unassigned) [Example 271] | 3.3 µM |
| CN(C(=O)C1CCS(=O)(=O)CC1)[C@@H](c1ccc(NC2Cc3cccc(F)c3C2)cn1)C(F)(F)F (single isomer, unassigned) [Example 274] | 0.28 µM |
| CN(C(=O)C1CCS(=O)(=O)CC1)[C@@H](c1ccc(NC2Cc3cccc(F)c3C2)cn1)C(F)(F)F (single isomer, unassigned) [Example 275] | 0.52 µM |
| CN(C(=O)C1CCS(=O)(=O)CC1)[C@@H](c1ccc(NC2Cc3cccc(C(F)(F)F)c3C2)nc1)C(F)(F)F (single isomer, unassigned) [Example 280] | 0.86 µM |
| CN(C(=O)C1CCS(=O)(=O)CC1)[C@@H](c1ccc(NC2Cc3ccc(Br)cc3C2)cn1)C(F)(F)F (single isomer, unassigned) [Example 285] | 0.69 µM |
| CN(C(=O)C1CCS(=O)(=O)CC1)[C@@H](c1ccc(NC2Cc3cc(F)cc(Cl)c3C2)cn1)C(F)(F)F (single isomer, unassigned) [Example 286] | 0.73 µM |
| CN(C(=O)C1CCS(=O)(=O)CC1)[C@@H](c1ccc(NC2Cc3cc(F)cc(Cl)c3C2)cn1)C(F)(F)F (single isomer, unassigned) [Example 287] | 0.29 µM |
| CN(C(=O)C1CCS(=O)(=O)CC1)[C@@H](c1ccc(NC2Cc3ccc(Cl)cc3C2)nc1)C(F)(F)F (single isomer, unassigned) [Example 288] | 1.64 µM |
| CN(C(=O)C1CCS(=O)(=O)CC1)[C@@H](c1ccc(NC2Cc3c(F)ccc(Cl)c3C2)cn1)C(F)(F)F (single isomer, unassigned) [Example 294] | 2.4 µM |
| CN(C(=O)C1CCS(=O)(=O)CC1)[C@@H](c1ccc(NC2Cc3cc(F)c(F)c(F)c3C2)cn1)C(F)(F)F (single isomer, unassigned) [Example 295] | 1.9 µM |
| CN(C(=O)C1CCS(=O)(=O)CC1)[C@@H](c1ccc(NC2Cc3cc(F)c(F)c(F)c3C2)cn1)C(F)(F)F (single isomer, unassigned) [Example 296] | 1.4 µM |
| CN(C(=O)C1CCS(=O)(=O)CC1)[C@@H](c1ccc(NC2Cc3ccc(C4CC4)cc3C2)cn1)C(F)(F)F (single isomer, unassigned) [Example 307] | 0.22 µM |
| CN(C(=O)C1CCS(=O)(=O)CC1)[C@@H](c1ccc(NC2Cc3ccc(C4CC4)cc3C2)cn1)C(F)(F)F (single isomer, unassigned) [Example 308] | 1.4 µM |
| CN(C(=O)C1CCNC(=O)C1)[C@@H](c1ccc(N[C@H]2Cc3ccc(Cl)cc3C2)cn1)C(F)(F)F (single isomer, unassigned) [Example 313] | 0.19 µM |
| CN(C(=O)C1CCS(=O)(=O)CC1)[C@@H](c1ccc(NC2Cc3ccc(Cl)c(F)c3C2)nc1)C(F)(F)F (single isomer, unassigned) [Example 331] | 0.4 µM |
| CN(C(=O)[C@H]1CNC(=O)C1)[C@@H](c1ccc(NC2Cc3ccc(Cl)c(F)c3C2)nc1)C(F)(F)F (single isomer, unassigned) [Example 338] | 0.96 µM |
| Cc1ncc(C(=O)N(C)[C@@H](c2ccc(NC3Cc4ccc(Cl)c(F)c4C3)cn2)C(F)(F)F)cn1 (single isomer, unassigned) [Example 348] | 0.41 µM |
